In patent US20120107428A1, “REPELLENTS FOR PESTIFEROUS SOCIAL WASPS” (Sterling International Inc., priority 2010, published 2012):

Tests used:
[1] = test system: Paper wasps (mainly Polistes dominulus, plus a few of P. aurifer); assay: Field trapping, Rescue W•H•Y traps baited with attractant AA/2MB: captures of paper wasps; type: in vivo; conditions: N 9
Procedure: (§1) Eleven field trapping experiments were carried out from late August to mid-October 2009 in residential and woody areas around Spokane, Wash., USA, mostly using the trap known by the designation Rescue® W•H•Y (except on one occasion that Rescue® Reusable Yellowjacket Traps were used for a natural food attractant; see below for details). The commercial W•H•Y trap has a top chamber and a bottom chamber and is described in U.S. Patent Application Publication No. 2009/0151228. The top chamber is baited with two attractants—one of which is a solid contained in a vial (2-methyl-1-butanol), and the other is a liquid mixed with water (acetic acid). The bottom chamber is baited with a liquid attractant (heptyl butyrate) poured onto a cotton pad. Separation of the two types of attractants (otherwise antagonistic to each other when released from the same chamber) in two chambers creates two focal attraction sources from one trap for different species of wasps, hornets, and yellowjackets. […] In a special occasion, the commercial Rescue® Reusable Yellowjacket Traps were each baited with 10 g of chopped bacon (loaded into a cartridge) as a natural protein food attractant. Traps were hung 1.5-2.0 m above the ground on either fences or tree branches ca. 5 m apart between each trap and at least 15 m between sets. For each trapping experiment, three sets of traps (i.e., three physical replicates of each treatment) were deployed with their initial trap positions within each set being randomized. To minimize positional effects and obtain more replications, wasp collections and trap re-randomization were carried out when 5-10 wasps were caught in the best traps. Each replicate lasted several days depending on wasp flight activity. Captured wasps were removed from the traps and kept in the zip-bags before returning to the laboratory for recording of the species, gender status, and catch. Repellent candidates (individuals or mixtures) were released from polyethylene bags (3×5 cm; with a fabric felt) with various thicknesses from 2-12 mil (see release rates listed in tables); they were employed inside the same trap chamber as the attractant.
(§2) Experiment 1 tested five individual essential oils (pennyroyal, lemongrass, peppermint, clove, and citronella) and two known mosquito repellents (i.e., major components of catnip oil), E/Z-nepetalactone and Z/E-nepetalactone plus a blank control against a mixture of attractant [acetic acid (AA) and 2-methyl-1-butanol (2 MB)] using the W•H•Y traps (both attractant and repellent candidates were released from the top chamber) from for eight consecutive days from August to early September. Experiment 2 tested nine individual essential oils (ylang ylang, vetiver, myrrh, patchouli, geranium, eucalyptus, camphor, spearmint, and wintergreen) plus a blank control against a mixture of attractant (AA+2 MB) using the W•H•Y traps (both attractant and repellent candidates were released from the top chamber) for eight consecutive days from late August to early September. Experiment 3 tested seven individual essential oils (Roman chamomile, sage, fennel seed, rosemary, thyme, anise, and lavender) plus a blank control against a mixture of attractant (AA+2 MB) using the W•H•Y traps (both attractant and repellent candidates were released from the top chamber) for eight consecutive days from late August to early September. Experiment 4 tested two essential oil mixtures (3EO-mix: clove, geranium, and lemongrass in ca. 1:1:1 ratio; and 4EO-mix: clove, geranium, lemongrass, and rosemary in ca. 1:1:1:1 ratio) plus a blank control against a mixture of attractant (AA+2 MB) using the W•H•Y traps (both attractant and repellent candidates were released from the top chamber) for 13 consecutive days in September; the essential oil mixtures alone without attractant were tested in the same experiment.

[2] = test system: vespid wasps (paper wasps, hornets and yellowjackets); assay: Field trapping experiments, repellency stated for vespid wasps as a whole (yellowjackets and paper wasps; summaries); type: in vivo, Vespula pensylvanica; Polistes dominulus; conditions: for repellency on either yellowjackets or paper wasps or both to the attractant AA/2 MB: Experiments 1-3, late August to early September; for activity at doses tested: Experiment 9
Procedure: as §1, §2

[3] = test system: Yellowjackets (mainly Vespula pensylvanica (ca. 90%), plus V. vulgaris, V. germanica, and Dolichovespula maculata); assay: Field trapping, Rescue W•H•Y traps baited with attractant AA/2MB: captures of yellowjackets; type: in vivo; conditions: N 9
Procedure: as §1, §2

[4] = test system: worker antennae of Vespula pensylvanica, Dolichovespula maculata, Polistes dominulus, and P. aurifer; assay: GC-EAD/MS analysis of SPME headspace samples of essential oils: antennal responses; conditions: for antennal (EAD) response to component of geranium oil: V. pensylvanica, D. maculata, P. dominulus, or P. aurifer antennae; for antennal (EAD) response to component of rosemary oil: V. pensylvanica and D. maculata antennae, FIG. 3
Procedure: Headspace volatiles from greater than 10 types of essential oils (1 ml each in a closed 20 ml glass vial) were sampled via Solid-Phase Micro-Extraction (SPME) (CAR/PDMS, 85 μm, Supelco, Bellefonte, Pa.) for 20-30 sec before GC-EAD and GC-MS analyses.
Paper wasp [European paper wasp (Polistes dominulus) or golden paper wasp (P. aurifer)] and yellowjacket [Western yellowjacket (Vespula pensylvanica) or Bald-faced hornet (Dolichovespula maculata)] workers for electrophysiological study were collected from their nests and kept alive at 4° C. before testing.
SPME samples of the various essential oils were injected splitless into a Varian CP-3800 GC equipped with a polar column (HP-INNOWAX; 30 m×0.53 mm×1.0 μm film thickness; Agilent Technologies, Wilmington, Del., USA) and a 1:1 effluent splitter that allowed simultaneous flame ionization detection (FID) and electroantennographic detection (EAD) of either a yellowjacket or paper wasp worker antenna to the separated volatile compounds. Helium was used as the carrier gas, and the injector and detector temperatures were 250° C. and 300° C., respectively. Column temperature was 50° C. for 1 min, rising to 240° C. at 10° C./min, and then held for 10 min. The outlet for the EAD was held in a humidified air stream flowing at 0.5 m/sec over the antennal preparation. EAD recordings were made using silver wire-glass capillary electrodes filled with Beadle-Ephrussi Ringer on freshly cut antennae. The antennal signals were stored and analyzed on a PC equipped with a serial IDAC interface box and the program EAD ver. 2.5 (Syntech, Hilversum, The Netherlands).
Compounds were identified by comparison of retention times with those of authentic standards and with mass spectra of standards.

[5] = test system: Paper wasps (mainly Polistes dominulus, plus a few of P. aurifer); assay: Field trapping, Rescue W•H•Y traps baited with attractant heptyl butyrate: captures of paper wasps; type: in vivo
Procedure: (§3) Eleven field trapping experiments were carried out from late August to mid-October 2009 in residential and woody areas around Spokane, Wash., USA, mostly using the trap known by the designation Rescue® W•H•Y (except on one occasion that Rescue® Reusable Yellowjacket Traps were used for a natural food attractant; see below for details). The commercial W•H•Y trap has a top chamber and a bottom chamber and is described in U.S. Patent Application Publication No. 2009/0151228. The top chamber is baited with two attractants—one of which is a solid contained in a vial (2-methyl-1-butanol), and the other is a liquid mixed with water (acetic acid). The bottom chamber is baited with a liquid attractant (heptyl butyrate) poured onto a cotton pad. Separation of the two types of attractants (otherwise antagonistic to each other when released from the same chamber) in two chambers creates two focal attraction sources from one trap for different species of wasps, hornets, and yellowjackets. In order to test potential repellency of essential oils or EAD-active synthetic candidate compounds on different types of attractants, W•H•Y traps were baited with either a top attractant or a bottom attractant depending on the experiments. […]

[6] = test system: Yellowjackets (mainly Vespula pensylvanica (ca. 90%), plus V. vulgaris, V. germanica, and Dolichovespula maculata); assay: Field trapping, Rescue W•H•Y traps baited with attractant heptyl butyrate: captures of yellowjackets; type: in vivo; conditions: Table 5, Experiment 5; treatment alone (essential oil mix alone, or attractant HB alone); 13 days in September; N 18
Procedure: as §3

[7] = test system: yellowjackets (mainly Vespula pensylvanica); assay: Field observation of landing and approaching of yellowjackets at heptyl butyrate attractant source (experiment 7); type: in vivo; conditions: Experiment 7, FIG. 1, attractant alone, 15 minutes observation replicates
Procedure: In addition, the repellency of the essential oil mixture (3EO-mix; at 0 cm and 50 cm above the heptyl butyrate attractant) on the landing behavior of yellowjackets was field observed (as experiment 7) on a September day for roughly 1.5 hours in Spokane, Wash. This observation test was conducted in the sun by setting up in a line east to west four portable light gray folding tables (45.7×66.0×67.3 cm) in a level area of grass near a vineyard. These tables were placed approximately 3 m apart. Chairs were set up approximately 4 m away from the tables for the scientists conducting the observations. On each table a black lab support stand was used with a movable metal bar in the horizontal direction clamped to the support stand for placing a repellent PE-bag dispenser (2 ml of 3EO-mix) or blank PE-bag at either 0 cm or 50 cm above the attractant, heptyl butyrate. A white towel was used to cover the black base of the support stand to provide a uniform color. A circle felt pad (3.5 cm diameter) loaded with 3 ml of heptyl butyrate as attractant or left blank for a negative control in a Petri dish (9 cm diameter) was placed on the base of the stand. […]
Trap catch data (number of wasps/trap/visit) and landing/approaching numbers were transformed by log (X+1) and the transformed means were analyzed by ANOVA, followed by the Duncan's multiple-range test (SPSS 16.0 for Windows) at α=0.05.

[8] = Table 1, Experiment 1, attractant AA/2MB alone (row AA/2MB) or plus essential oil/chemical in same trap chamber, eight days late August to early September
[9] = Table 8, Experiment 9, attractant AA/2MB alone (row AA/2MB) or plus chemical, 13 days in September
[10] = Table 9, Experiment 10, attractant AA/2MB alone (row AA/2MB) or plus chemical, 18 days end of September through mid-October
[11] = Table 10, Experiment 11, attractant AA/2MB alone (row AA/2MB) or plus chemical, 16 days in October

Compound: E/Z-nepetalactone [EZ-Neptalactone]
- Mean/trap/visit ± SE Paper wasps [1, 8]: 3.2 ± 1.1 bc wasps/trap/visit
- repellency on either yellowjackets or paper wasps or both to the attractant AA/2 MB [2]: partially significant repellency
- Mean/trap/visit ± SE Yellowjackets [3, 8]: 11.2 ± 3.6 b wasps/trap/visit

Compound: Z/E-nepetalactone [ZE-Neptalactone]
- Mean/trap/visit ± SE Paper wasps [1, 8]: 11.3 ± 4.5 c wasps/trap/visit
- repellency on either yellowjackets or paper wasps or both to the attractant AA/2 MB [2]: partially significant repellency
- Mean/trap/visit ± SE Yellowjackets [3, 8]: 52.1 ± 16.2 cd wasps/trap/visit

Compound: CC(C)=CCCC(C)CCO (stereo not drawn) [β-Citronellol, β-citronellol]
- antennal (EAD) response to component of geranium oil [4]: significant and consistent EAD-responses
- Mean/trap/visit ± SE Paper wasps [1, 9]: 5.1 ± 1.6 b wasps/trap/visit
- activity at doses tested ([2]; AA/2 MB): inactive
- Mean/trap/visit ± SE Yellowjackets [3, 9]: 36.2 ± 6.8 b wasps/trap/visit

Compound: CCCCCCCOC(=O)CCC [HB, heptyl butyrate]
- attraction of paper wasps to heptyl butyrate ([5]; Experiment 5): not attracted
- Mean/trap/visit ± SE Paper wasps ([5]; Table 5, Experiment 5, treatment alone (essential oil mix alone, or attractant HB alone), 13 days in September, N 18): 1.3 ± 0.6 a wasps/trap/visit
- Mean/trap/visit ± SE Yellowjackets [6]: 39.7 ± 13.6 b wasps/trap/visit
- average number of yellowjackets landing [7]: 5
- average number of yellowjackets approaching ([7]; within 0.5 m): 12

Compound: CC1=CCC(C(C)(C)O)CC1 (stereo not drawn) [α-Terpineol, α-terpineol]
- antennal (EAD) response to component of rosemary oil [4]: significant EAD-responses
- Mean/trap/visit ± SE Paper wasps [1, 9]: 2.2 ± 0.9 ab wasps/trap/visit
- activity at doses tested ([2]; AA/2 MB): inactive
- Mean/trap/visit ± SE Yellowjackets [3, 9]: 21.9 ± 5.7 b wasps/trap/visit

Compound: CC(C)=CCC/C(C)=C/CO [Geraniol, geraniol]
- antennal (EAD) response to component of geranium oil [4]: significant and consistent EAD-responses
- Mean/trap/visit ± SE Paper wasps [1, 10]: 2.9 ± 0.9 b wasps/trap/visit
- repellency at the dose tested ([2]; Experiment 10, AA/2 MB): not different from the attractant alone
- Mean/trap/visit ± SE Yellowjackets [3, 10]: 21.8 ± 6.0 cd wasps/trap/visit

Compound: COc1ccc(C)cc1 [4-Methylanisole, 4-methylanisole]
- antennal (EAD) response to component of ylang ylang oil ([4]; V. pensylvanica and P. dominulus worker antennae): strong and repeatable antennal responses
- Mean/trap/visit ± SE Paper wasps [1, 11]: 0.9 ± 0.5 a wasps/trap/visit
- repellency to either yellowjackets or paper wasps ([2]; Experiment 11, AA/2 MB, at 90 mg/day release): did not show significant repellency
- Mean/trap/visit ± SE Yellowjackets [3, 11]: 10.0 ± 5.0 b wasps/trap/visit

Compound: CC1=CCC(O)(C(C)C)CC1 (stereo not shown) [4-Terpineol, 4-terpineol]
- antennal (EAD) response to component of rosemary oil [4]: significant EAD-responses
- Mean/trap/visit ± SE Paper wasps [1, 9]: 2.0 ± 0.7 ab wasps/trap/visit
- activity at doses tested ([2]; AA/2 MB): inactive
- Mean/trap/visit ± SE Yellowjackets [3, 9]: 23.3 ± 5.6 b wasps/trap/visit
